Laboratory results from ChEMBL document CHEMBL3102833, “Design and synthesis of guanylthiourea derivatives as potential inhibitors of Plasmodium falciparum dihydrofolate reductase enzyme” (Bioorg Med Chem Lett, 2014).

Experiment: Inhibition of Plasmodium falciparum recombinant dihydrofolate reductase expressed in Escherichia coli BL21 (DE3)

IC50 [µM]	SMILES
0.4	N=C(N=C(N)N)SCc1cccc(I)c1
100	N=C(N)/N=C(\N)SCc1cccc(CS/C(N)=N/C(=N)N)c1
